From ChEMBL document CHEMBL1201862, “PubChem BioAssay data set” (2004)
Active and inactive are the calls of the source.

Key:
[1] = biological target: Alkaline phosphatase, placental type (Homo sapiens, UniProt P05187); assay: human placental alkaline phosphatase inhibition – biochemical, luminescence, confirmation (AID 1512); assay type: functional
Insulin-degrading enzyme = biological target: T1, Insulin-degrading enzyme (Homo sapiens, UniProt P14735); assay: Dose Response: Fluorescence polarization-based cell-based high throughput dose response assay for inhibitors of insulin-degrading enzyme (IDE). [Related pubchem assays: 434962 (Primary screen (IDE inhibitors in singlicate)), 449730 (Counterscreen (Cytotoxicity in triplicate)), 435028 (Confirmation (IDE inhibitors in triplicate)), 434984 (Summary …; assay type: functional
T1 sequence (P14735 whole entry): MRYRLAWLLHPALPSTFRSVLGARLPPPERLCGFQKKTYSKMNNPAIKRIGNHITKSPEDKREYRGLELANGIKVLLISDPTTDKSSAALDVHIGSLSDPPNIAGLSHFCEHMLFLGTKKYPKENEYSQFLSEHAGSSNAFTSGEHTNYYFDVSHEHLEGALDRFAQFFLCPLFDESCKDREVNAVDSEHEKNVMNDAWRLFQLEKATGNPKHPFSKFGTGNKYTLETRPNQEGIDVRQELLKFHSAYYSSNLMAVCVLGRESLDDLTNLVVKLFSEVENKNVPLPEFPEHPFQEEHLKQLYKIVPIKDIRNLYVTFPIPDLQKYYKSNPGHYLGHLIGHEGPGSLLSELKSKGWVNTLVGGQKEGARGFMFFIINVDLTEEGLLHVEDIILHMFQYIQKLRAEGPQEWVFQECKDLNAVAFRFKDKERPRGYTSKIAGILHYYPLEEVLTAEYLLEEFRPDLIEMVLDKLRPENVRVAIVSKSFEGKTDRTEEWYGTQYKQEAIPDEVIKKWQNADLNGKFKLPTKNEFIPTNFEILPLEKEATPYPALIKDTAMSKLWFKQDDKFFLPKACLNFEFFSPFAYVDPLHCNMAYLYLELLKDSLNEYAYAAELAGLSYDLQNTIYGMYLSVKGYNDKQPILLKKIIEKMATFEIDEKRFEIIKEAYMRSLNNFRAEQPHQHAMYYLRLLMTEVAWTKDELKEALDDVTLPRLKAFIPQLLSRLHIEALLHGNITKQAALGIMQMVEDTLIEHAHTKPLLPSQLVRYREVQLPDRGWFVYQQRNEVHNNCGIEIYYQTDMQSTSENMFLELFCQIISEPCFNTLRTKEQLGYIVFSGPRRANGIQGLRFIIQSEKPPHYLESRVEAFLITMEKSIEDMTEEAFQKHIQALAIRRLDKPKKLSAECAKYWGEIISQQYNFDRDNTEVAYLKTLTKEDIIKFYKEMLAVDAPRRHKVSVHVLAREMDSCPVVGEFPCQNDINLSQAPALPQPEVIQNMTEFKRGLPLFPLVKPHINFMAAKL

[2] = Counterscreen for IDE inhibitors: Luminescence-based cell-based high throughput dose response assay to identify compounds that are cytotoxic to HEK cells. [Related pubchem assays: 434962 (Primary screen (IDE inhibitors in singlicate)), 449730 (Counterscreen (Cytotoxicity in triplicate)), 435028 (Confirmation (IDE inhibitors in triplicate)) …; assay type: functional; details: HEK293
Protein skinhead-1 = biological target: T2, Protein skinhead-1 (Caenorhabditis elegans, UniProt P34707); assay type: functional
T2 sequence (P34707 whole entry): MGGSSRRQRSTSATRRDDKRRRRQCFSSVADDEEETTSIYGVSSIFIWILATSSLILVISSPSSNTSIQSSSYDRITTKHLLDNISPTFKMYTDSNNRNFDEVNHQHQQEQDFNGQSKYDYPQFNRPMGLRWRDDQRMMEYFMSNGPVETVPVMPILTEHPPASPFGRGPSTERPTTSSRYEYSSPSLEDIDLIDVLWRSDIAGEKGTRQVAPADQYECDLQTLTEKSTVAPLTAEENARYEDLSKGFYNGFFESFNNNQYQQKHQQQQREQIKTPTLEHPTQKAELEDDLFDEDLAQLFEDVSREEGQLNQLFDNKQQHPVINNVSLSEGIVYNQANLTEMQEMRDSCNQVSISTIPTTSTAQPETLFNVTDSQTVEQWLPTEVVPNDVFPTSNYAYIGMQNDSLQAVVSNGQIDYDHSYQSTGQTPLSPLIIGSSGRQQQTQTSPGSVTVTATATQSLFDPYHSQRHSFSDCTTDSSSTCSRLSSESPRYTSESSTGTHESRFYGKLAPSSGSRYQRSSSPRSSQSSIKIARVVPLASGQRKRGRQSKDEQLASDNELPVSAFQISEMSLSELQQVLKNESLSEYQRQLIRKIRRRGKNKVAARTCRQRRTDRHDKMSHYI

[3] = biological target: T3, Acyl-homoserine lactone acylase PvdQ (Pseudomonas aeruginosa (strain LESB58), UniProt Q9I194); assay: PvdQ acylase enzyme activity blockers – biochemical, fluorescence, plate reader and imaging, cherry-picks, dose response (AID 493231)
T3 sequence (Q9I194 whole entry): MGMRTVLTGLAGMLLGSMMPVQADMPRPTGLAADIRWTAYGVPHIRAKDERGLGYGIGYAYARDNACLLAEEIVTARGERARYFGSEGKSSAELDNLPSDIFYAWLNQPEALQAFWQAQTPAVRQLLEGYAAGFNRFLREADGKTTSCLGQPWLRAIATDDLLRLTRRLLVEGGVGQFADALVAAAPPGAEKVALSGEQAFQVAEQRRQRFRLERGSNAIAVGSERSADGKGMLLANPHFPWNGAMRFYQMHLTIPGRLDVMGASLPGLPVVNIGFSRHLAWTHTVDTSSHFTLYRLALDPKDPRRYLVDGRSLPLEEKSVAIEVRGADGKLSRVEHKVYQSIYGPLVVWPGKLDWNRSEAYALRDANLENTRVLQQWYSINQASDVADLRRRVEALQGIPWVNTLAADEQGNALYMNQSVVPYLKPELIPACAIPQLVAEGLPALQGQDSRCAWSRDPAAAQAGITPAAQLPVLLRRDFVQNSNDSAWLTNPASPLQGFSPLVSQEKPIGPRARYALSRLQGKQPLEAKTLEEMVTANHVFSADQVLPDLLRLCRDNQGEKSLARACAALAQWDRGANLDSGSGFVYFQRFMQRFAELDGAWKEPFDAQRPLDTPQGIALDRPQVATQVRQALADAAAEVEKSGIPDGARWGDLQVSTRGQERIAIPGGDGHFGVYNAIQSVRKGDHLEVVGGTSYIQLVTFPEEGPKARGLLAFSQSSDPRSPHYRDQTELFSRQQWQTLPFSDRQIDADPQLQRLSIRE

BJ [4] = assay: cells; assay type: functional, cell-based; details: Homo sapiens
BJ [5] = assay: BJ-TERT-LT-ST fibroblast viability loss – cell-based, RAS-independent, luminescence, dose response (AID 1935); assay type: functional; details: Homo sapiens;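 also: BJ fibroblasts immortalized with TERT plus LT and ST oncogenes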
BJ [6] = assay: BJ-TERT fibroblast viability loss – cell-based, RAS-independent, luminescence, dose response (AID 1933); assay type: functional; details: Homo sapiens
[7] = DRD fibroblast viability loss – cell-based, non-viral oncogenic, luminescence, dose response (AID 1934); assay type: functional; details: Homo sapiens
[8] = viability of PTEN-deleted HCT116 cells – cell-based, HCT116 PTEN knockout, dose response (AID 1047); assay type: functional;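 also: HCT116 colon tumor cells with PTEN knocked out; cells exposed to compound for 60 hours before readout; potency for loss of cell viability measured by luminescence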
[9] = viability of HCT116 lacking mutant beta-catenin – cell-based, human colon tumor, dose response (AID 1045); assay type: functional;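 also: HCT116 colon tumor cells with beta catenin knocked out; cells exposed to compound for 60 hours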
[10] = biological target: FAD-linked sulfhydryl oxidase ALR (Homo sapiens, UniProt P55789); assay: ALR-catalysed DTT oxidation blockers – biochemical, H2O2 detection, luminescence, cherry-pick, dose response (AID 493248)
[11] = biological target: Neurotensin receptor type 1 (Homo sapiens, UniProt P30989); assay type: functional;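 also: Image-based confirmatory dose-response assay measuring agonist activity at NTR1; NTR1-expressing U2OS osteosarcoma cells imaged for beta-arrestin GFP spot formation; agonist potency where compounds increase beta-arrestin recruitment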
Neurotensin receptor type 1, sequence (P30989 whole entry): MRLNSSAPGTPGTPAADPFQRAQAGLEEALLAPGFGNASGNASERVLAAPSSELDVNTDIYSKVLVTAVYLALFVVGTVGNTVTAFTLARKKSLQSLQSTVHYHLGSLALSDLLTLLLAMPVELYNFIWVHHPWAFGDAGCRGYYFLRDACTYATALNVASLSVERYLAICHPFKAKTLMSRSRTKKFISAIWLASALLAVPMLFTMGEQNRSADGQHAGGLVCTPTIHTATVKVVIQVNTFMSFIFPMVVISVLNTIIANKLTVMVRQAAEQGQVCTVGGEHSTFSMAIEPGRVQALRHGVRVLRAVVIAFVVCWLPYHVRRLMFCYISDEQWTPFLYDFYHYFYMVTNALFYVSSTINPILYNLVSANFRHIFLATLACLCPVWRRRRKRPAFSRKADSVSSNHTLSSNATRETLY

FAD-linked sulfhydryl oxidase ALR, sequence (P55789 whole entry): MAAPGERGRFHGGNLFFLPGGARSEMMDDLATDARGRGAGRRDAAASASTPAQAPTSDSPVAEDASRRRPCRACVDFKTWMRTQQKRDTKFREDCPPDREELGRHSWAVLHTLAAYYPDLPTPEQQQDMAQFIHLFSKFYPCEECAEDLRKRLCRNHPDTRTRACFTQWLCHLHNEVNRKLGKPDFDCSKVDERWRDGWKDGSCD
Alkaline phosphatase, placental type, sequence (P05187 whole entry): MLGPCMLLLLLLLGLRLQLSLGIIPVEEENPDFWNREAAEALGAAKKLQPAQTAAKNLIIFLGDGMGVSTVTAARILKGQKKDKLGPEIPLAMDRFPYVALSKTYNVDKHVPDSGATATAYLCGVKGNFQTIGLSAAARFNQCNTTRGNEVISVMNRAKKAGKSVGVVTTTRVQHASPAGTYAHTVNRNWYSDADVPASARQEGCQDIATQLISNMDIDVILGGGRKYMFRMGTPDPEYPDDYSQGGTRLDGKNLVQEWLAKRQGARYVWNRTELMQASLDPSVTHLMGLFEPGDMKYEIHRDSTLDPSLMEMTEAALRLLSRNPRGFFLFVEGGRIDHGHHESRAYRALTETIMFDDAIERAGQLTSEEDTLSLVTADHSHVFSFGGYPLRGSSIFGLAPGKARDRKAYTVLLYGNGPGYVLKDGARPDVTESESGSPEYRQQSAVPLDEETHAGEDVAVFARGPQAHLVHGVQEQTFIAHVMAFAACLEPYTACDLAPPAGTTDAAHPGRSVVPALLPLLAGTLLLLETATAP

## COc1cccc(C=NNc2nn3cnnc3c3ccccc23)c1O
[1]
  IC50: > 100 µM (inactive)

## O=C1NC(=O)N(c2ccccc2)C(=O)/C1=C\C=C\Nc1ccccc1
Insulin-degrading enzyme
  IC50: > 55.9 µM (not active)
[2]
  IC50: > 55.7 µM (not active)

## C#CCSc1ncc(-c2ccccc2)cn1
Protein skinhead-1
  IC50: 15.3 µM (active)
[3]
  AC50: 6.14 µM (active)

## c1ccc2c(CCNc3[nH]cnc4ncnc3-4)c[nH]c2c1
BJ [4]
  EC50: 53.2 µM (active)
BJ [5]
  EC50: > 75 µM (not active)
BJ [6]
  EC50: 24.4 µM (active)
[7]
  EC50: 30.5 µM (active)

## Cn1nc(-c2ccc(Cl)cc2)c2cc(C(=O)NCCCN3CCCC3)sc21
[8]
  EC50: 4.65 µM (active)
[9]
  EC50: 4.01 µM (active)
[10]
  AC50: 6.39 µM (active)
BJ [4]
  EC50: 23.1 µM (active)
BJ [5]
  EC50: > 150 µM (inconclusive)
BJ [6]
  EC50: 9.41 µM (active)
[7]
  EC50: 12.4 µM (active)

## COc1cccc(OC)c1C(=O)Oc1ccc2c(c1)O/C(=C\c1ccncc1)C2=O
[11]
  EC50: 15.9 µM (active)
